How the values were obtained:
Format in all cases: functional
A498 = experiment: Cytotoxicity against Homo sapiens (human) A498 cells after 48 hr by sulforhodamine B assay; details: A498, 48 h
ACHN = experiment: Cytotoxicity against Homo sapiens (human) ACHN cells after 48 hr by sulforhodamine B assay
786-0 = experiment: Cytotoxicity against Homo sapiens (human) 786-0 cells after 48 hr by sulforhodamine B assay; details: 786-0, 48 h
OVCAR-5 = experiment: Cytotoxicity against Homo sapiens (human) OVCAR5 cells after 48 hr by sulforhodamine B assay; details: OVCAR-5, 48 h
IGROV-1 = experiment: Cytotoxicity against Homo sapiens (human) IGROV1 cells after 48 hr by sulforhodamine B assay; details: IGROV-1, 48 h
OVCAR-3 = experiment: Cytotoxicity against Homo sapiens (human) OVCAR3 cells after 48 hr by sulforhodamine B assay; details: OVCAR-3, 48 h
UACC-257 = experiment: Cytotoxicity against Homo sapiens (human) UACC257 cells after 48 hr by sulforhodamine B assay; details: UACC-257, 48 h
SK-MEL-28 = experiment: Cytotoxicity against Homo sapiens (human) SK-MEL-28 cells after 48 hr by sulforhodamine B assay; details: SK-MEL-28, 48 h
SK-MEL-2 = experiment: Cytotoxicity against Homo sapiens (human) SK-MEL-2 cells after 48 hr by sulforhodamine B assay; details: SK-MEL-2, 48 h
M14 = experiment: Cytotoxicity against Homo sapiens (human) M14 cells after 48 hr by sulforhodamine B assay; details: M14, 48 h
U-251 = experiment: Cytotoxicity against Homo sapiens (human) U251 cells after 48 hr by sulforhodamine B assay; details: U-251, 48 h
T47D = experiment: Cytotoxicity against Homo sapiens (human) T47D cells after 48 hr by sulforhodamine B assay
MDA-MB-435 = experiment: Cytotoxicity against Homo sapiens (human) MDA-MB-435 cells after 48 hr by sulforhodamine B assay; details: MDA-MB-435, 48 h
Hs-578T = experiment: Cytotoxicity against Homo sapiens (human) Hs 578T cells after 48 hr by sulforhodamine B assay
[1] = Cytotoxicity against Homo sapiens (human) NCI-ADR-RES cells after 48 hr by sulforhodamine B assay
DU-145 = experiment: Cytotoxicity against Homo sapiens (human) DU145 cells after 48 hr by sulforhodamine B assay; details: DU-145, 48 h
UO-31 = experiment: Cytotoxicity against Homo sapiens (human) UO31 cells after 48 hr by sulforhodamine B assay; details: UO-31, 48 h
TK-10 = experiment: Cytotoxicity against Homo sapiens (human) TK10 cells after 48 hr by sulforhodamine B assay; details: TK-10, 48 h
CAKI-1 = experiment: Cytotoxicity against Homo sapiens (human) Caki1 cells after 48 hr by sulforhodamine B assay; details: CAKI-1, 48 h
SF-295 = experiment: Cytotoxicity against Homo sapiens (human) SF295 cells after 48 hr by sulforhodamine B assay; details: SF-295, 48 h
SW-620 = experiment: Cytotoxicity against Homo sapiens (human) SW620 cells after 48 hr by sulforhodamine B assay; details: SW-620, 48 h
HCT-15 = experiment: Cytotoxicity against Homo sapiens (human) HCT15 cells after 48 hr by sulforhodamine B assay; details: HCT-15, 48 h
HCT-116 = experiment: Cytotoxicity against Homo sapiens (human) HCT116 cells after 48 hr by sulforhodamine B assay; details: HCT-116, 48 h
HCC 2998 = experiment: Cytotoxicity against Homo sapiens (human) HCC2998 cells after 48 hr by sulforhodamine B assay; details: HCC 2998, 48 h
NCI-H460 = experiment: Cytotoxicity against Homo sapiens (human) NCI-H460 cells after 48 hr by sulforhodamine B assay; details: NCI-H460, 48 h
NCI-H322M = experiment: Cytotoxicity against Homo sapiens (human) NCI-H322M cells after 48 hr by sulforhodamine B assay
NCI-H226 = experiment: Cytotoxicity against Homo sapiens (human) NCI-H226 cells after 48 hr by sulforhodamine B assay; details: NCI-H226, 48 h
HOP-92 = experiment: Cytotoxicity against Homo sapiens (human) HOP92 cells after 48 hr by sulforhodamine B assay; details: HOP-92, 48 h
A549 = experiment: Cytotoxicity against Homo sapiens (human) A549 cells after 48 hr by sulforhodamine B assay; details: A549, 48 h
MOLT-4 = experiment: Cytotoxicity against Homo sapiens (human) MOLT4 cells after 48 hr by sulforhodamine B assay; details: MOLT-4, 48 h
CCRF-CEM = experiment: Cytotoxicity against Homo sapiens (human) CCRF-CEM cells after 48 hr by sulforhodamine B assay
MCF7 = experiment: Cytotoxicity against Homo sapiens (human) MCF7 cells assessed as cell growth at 10^-4 M after 48 hr by Alamar blue assay; details: MCF7, 48 h, read-out: Activity
[2] = read-out: LC50 (the source's name)

For ClCc1cccc(Cn2cnc3nc(Cl)nc(Cl)c32)c1, the GI50 (A498) was 1.51 µM, the LC50 (lethal concentration, 50% cell kill) (A498) was 5.37 µM and the TGI (A498) was 2.81 µM. For the same compound, the GI50 (ACHN) was 1.12 µM, the TGI (ACHN) was 2.34 µM and the CC50 (ACHN; [2]) was 4.78 µM. It also gave a GI50 (786-0) of 1.58 µM, an LC50 (786-0) of 5.37 µM and a TGI (786-0) of 2.88 µM. For the same compound, the GI50 (OVCAR-5) was 1.69 µM, the TGI (OVCAR-5) was 3.23 µM and the CC50 (OVCAR-5; [2]) was 6.3 µM. For the same compound, the GI50 (IGROV-1) was 17 µM, the LC50 (IGROV-1) was 55 µM and the TGI (IGROV-1) was 30.9 µM. For the same compound, the GI50 (OVCAR-3) was 1.51 µM, the LC50 (OVCAR-3) was 5.37 µM and the TGI (OVCAR-3) was 2.88 µM. The GI50 (UACC-257) was 3.46 µM, the LC50 (concentration killing 50% of cells) (UACC-257) was 38.9 µM and the TGI (UACC-257) was 15.1 µM. For the same compound, the GI50 (SK-MEL-28) was 0.17 µM, the LC50 (concentration killing 50% of cells) (SK-MEL-28) was 0.97 µM and the TGI (SK-MEL-28) was 0.4 µM. For the same compound, the GI50 (SK-MEL-2) was 1.77 µM, the LC50 (concentration killing 50% of cells) (SK-MEL-2) was 7.76 µM and the TGI (SK-MEL-2) was 3.71 µM. The GI50 (M14) was 1.38 µM, the LC50 (M14) was 5.12 µM and the TGI (M14) was 2.63 µM. For the same compound, the GI50 (U-251) was 1.38 µM, the LC50 (concentration killing 50% of cells) (U-251) was 5.12 µM and the TGI (U-251) was 2.69 µM. The GI50 (T47D) was 0.22 µM, the LC50 (T47D) was > 100 µM and the TGI (T47D) was 0.61 µM. For the same compound, the GI50 (MDA-MB-435) was 1.47 µM, the LC50 (MDA-MB-435) was 5.24 µM and the TGI (MDA-MB-435) was 2.81 µM. The GI50 (Hs-578T) was 1.41 µM, the TGI (Hs-578T) was 2.81 µM and the GI50 [1] was 1.54 µM. The LC50 (concentration killing 50% of cells) [1] was > 100 µM, the TGI [1] was 3.09 µM and the GI50 (DU-145) was 0.14 µM. For the same compound, the LC50 (DU-145) was 0.52 µM, the TGI (DU-145) was 0.26 µM and the GI50 (UO-31) was 17.4 µM. The LC50 (concentration causing 50% net cell kill) (UO-31) was 72.4 µM, the TGI (UO-31) was 35.5 µM and the GI50 (TK-10) was 16.6 µM. It also gave a TGI (TK-10) of 30.2 µM, a CC50 (TK-10; [2]) of 55 µM and a GI50 (CAKI-1) of 1.86 µM. It also gave a TGI (CAKI-1) of 3.46 µM, a GI50 (SF-295) of 1.86 µM and a TGI (SF-295) of 3.38 µM. The CC50 (SF-295; [2]) was 6.3 µM, the GI50 (SW-620) was 0.41 µM and the TGI (SW-620) was 1.65 µM. The CC50 (SW-620; [2]) was 4.07 µM, the GI50 (HCT-15) was 0.95 µM and the TGI (HCT-15) was 2.13 µM. The CC50 (HCT-15; [2]) was 4.57 µM, the GI50 (HCT-116) was 0.75 µM and the TGI (HCT-116) was 1.99 µM. It also gave a CC50 (HCT-116; [2]) of 4.46 µM, a GI50 (HCC 2998) of 1.9 µM and a TGI (HCC 2998) of 3.31 µM. For the same compound, the CC50 (HCC 2998; [2]) was 5.75 µM, the GI50 (NCI-H460) was 1.69 µM and the TGI (NCI-H460) was 3.09 µM. For the same compound, the CC50 (NCI-H460; [2]) was 5.49 µM, the GI50 (NCI-H322M) was 14.1 µM and the TGI (NCI-H322M) was 26.9 µM. For the same compound, the CC50 (NCI-H322M; [2]) was 52.5 µM, the GI50 (NCI-H226) was 1.28 µM and the TGI (NCI-H226) was 3.63 µM. The CC50 (NCI-H226; [2]) was 19.9 µM, the GI50 (HOP-92) was 1.47 µM and the TGI (HOP-92) was 2.75 µM. The CC50 (HOP-92; [2]) was 5.24 µM, the GI50 (A549) was 12 µM and the TGI (A549) was 25.7 µM. For the same compound, the CC50 (A549; [2]) was 55 µM, the GI50 (MOLT-4) was 1.04 µM and the TGI (MOLT-4) was 2.29 µM. It also gave a CC50 (MOLT-4; [2]) of 5.01 µM, a GI50 (CCRF-CEM) of 1.38 µM and a TGI (CCRF-CEM) of 2.75 µM. The CC50 (CCRF-CEM; [2]) was 5.49 µM and the growth at 100 µM (MCF7) was 0%.

From ChEMBL document CHEMBL3044672, “N9- and N7-(Chloromethyl Phenymethyl)Chloropurine Derivatives from , '-Dichloroxylenes: Synthesis and Anticancer Activity” (2005)
